Common to all, as to assay type: cell-based
One assay has as its system IL-1β secretion. The assay can be described thus: Inhibition of IL-1β secretion in LPS stimulated peripheral blood mononuclear cells. The note with it: PBMC; LPS stimulated human peripheral blood mononuclear cells, 18 hours, ELISA; read-out: The median inhibition concentration (IC50, nM) of IL-1β. On the procedure:
(§1) To study the effect of the compound of the present invention in vitro the inhibition of the IL-1β and TNF-α secretion was measured using the following procedure:
(§2) Cytokine production was measured in the media from lipopolysaccharide (LPS) stimulated peripheral blood mononuclear cells. The mononuclear cells were isolated from human peripheral blood by Lymphoprep® (Nycomed, Norway) fractionation and suspended in RPMI 1640 (growth medium) with foetal calv serum (FCS, 2%), at a concentration of 5×10^5 cells/ml. The cells were incubated in 24-well tissue culture plates in 1 ml aliquots. Test compounds were dissolved in dimethylsulfoxide (DMSO, 10 mM) and were diluted with the medium. Compounds were added to the cells for 30 minutes, then LPS ([…] final concentration) was added. The plates were incubated for 18 hours, and the concentration of IL-1β and TNF-α in the medium was determined by enzyme-linked immunosorbent assays. The median inhibitory concentrations (IC50) of the compounds were calculated.
A general note: In an ELISA, binding on a coated surface is turned into a signal by an enzyme label.

The test system of the next assay is TNF-α secretion. The assay can be described thus: Inhibition of TNF-α secretion in LPS stimulated peripheral blood mononuclear cells. The note with it: PBMC; LPS stimulated human peripheral blood mononuclear cells, 18 hours, ELISA; read-out: The median inhibition concentration (IC50, nM) of TNF-α. The procedure:
as §1, §2

The subject of assay [1] is Human polymorphonuclear (PMN) granulocytes. The assay can be described thus: Inhibition of PMN superoxide secretion (ferricytochrome C reduction, TNF-α primed, fMLP stimulated). The note with it: fMLP 10^−7 M, read-out: The median inhibition concentration (IC50, nM) of PMN-superoxide. On the procedure:
The compounds of the present invention also show similar activities in the ability to inhibit PMN (polymorphonuclear) superoxide secretion which is also indicative of potentially useful anti-inflammatory drugs. The compounds were tested using the following procedure. Human polymorphonuclear (PMN) granulocytes were isolated from human blood by dextran sedimentation, Lymphoprep® fractionation, and hypotonic lysis of contaminating erythrocytes. Superoxide anion generation was measured as the superoxide dismutase inhabitable reduction of ferricytochrome C (Madhu, S. B. et al, Inflammation, 16, 241, (1992)). The cells were suspended in Hank's balanced salt solution, and incubated for 10 minutes at 37° C. with test compounds. The cells were primed by the addition of TNF-α (3 ng/ml final concentration) for 10 minutes, and then ferricytochrome C, (final concentration 750 μg/ml), bovine serum albumin (BSA, final concentration 1 mg/ml) and formyl-methionyl-leucyl-phenylalanine (fMLP, final concentration 10^−7 M) were added for 3 minutes. The cells were chilled on ice, and were spun down. The optical densities in the cell-free supernatant was measured in a spectrophotometer. The median inhibitory concentration (IC50) of the compounds was calculated.

In the case of `Cc1ccccc1C(=O)c1ccc(Nc2ccccc2NC(=O)CCC(=O)O)cc1Cl` [Compound 101, N-[2-[3-Chloro-4-(2-methylbenzoyl)-phenylamino]phenyl]-succinamic Acid], the IC50 with IL-1β secretion worked out at 200 nM; in the assay with TNF-α secretion it was 25 nM; in assay [1], 63 nM.
Take `CCCCCCCC(=O)Nc1ccccc1Nc1ccc(C(=O)c2ccccc2C)c(Cl)c1` [Compound 102, 2′-[3-Chloro-4-(2-methylbenzoyl)-phenylamino]octananilide]: the IC50 turned out to be 6.3 nM in the assay on IL-1β secretion, 6.3 nM in the assay with TNF-α secretion and 5 nM in assay [1].

(Values after patent US6566554B1, “Aminobenzophenones as inhibitors of IL-1β and TNF-α” (Leo Pharmaceutical Products Ltd. a/s (Lovens Kemiske Fabrik …, priority 1999, dated 2003).)
